For one data set, the system named is KB7D. Put plainly: cells. The following applies: Homo sapiens, 72 h, read-out: Cytotoxicity KB7D. The procedure:
(§1) Cell Growth Inhibition Assay: MCF-7 breast carcinoma cells were maintained in plastic dishes in DMEM medium supplemented with 10% fetal bovine serum. For in vitro treatment, tumor cells were seeded in […] of culture medium/well in 96-well plates to a final cell density of 6 x 10^3 cell/mL and incubated in a CO2 incubator at 37 °C for 24 h. The cells were treated with at least five different concentrations of a test indole compound, and incubated in a CO2 incubator at 37 °C for 72 h. The number of viable cells was estimated using MTS assay and absorbance was measured at 490 nm. Cytotoxicity of the test compounds was expressed in terms of IC50 values. The values presented represent averages of three independent experiments, each with duplicate samples.
(§2) Indole compounds were tested against several panels of drug-resistant cell lines. It is well known that several anti-mitotic agents, including vinca alkaloid (vincristine, vinblastine) and taxol, have been introduced in clinic to treat various human cancers. […] The mechanisms responsible for taxol resistance include overexpression of p-glycoprotein and mutation of tubulin.
(§3) The mechanisms responsible for VP16-resistance (KB7D) were down-regulation of topoisomerase II and overexpression of MRP 1.

The test system of the next data set is KB-Vin10. The experiment in a line: cells. The following applies: read-out: Cytotoxicity KB -Vin10. The procedure: as §1, §2, §3
The next data set has as its system KB. The experiment in a line: Cell growth inhibition assay (cytotoxicity), KB cell line. The following applies: Homo sapiens, 72 h, read-out: Cytotoxicity KB. The procedure:
as §1, §2, §3

In the next data set the test system is KB100. The experiment in a line: Cell growth inhibition assay on drug-resistant line KB100. The following applies: Homo sapiens, 72 h, read-out: Cytotoxicity KB100. The procedure: as §1, §2, §3
In another data set the test system is HONECis-6. Put plainly: Cell growth inhibition assay on drug-resistant line HONECis-6. The following applies: read-out: Cytotoxicity HONECis -6, 72 h. The procedure:
as §1, §2, §3

A further data set has as its system MESSA uterine cell line. Put plainly: Cell growth inhibition assay (cytotoxicity), MESSA. The data set is classed as cell-based. The following applies: Homo sapiens, MES-SA, Table 2, MTS, 72 h. The procedure: (§4) In addition, indole compounds described in the "Summary" section were also tested on the A549 lung cell line, MESSA uterine cell line, MKN45 stomach cell line, SW480 colon cell line, NUGC3 stomach cell line, and MESSA/DX5 uterine cell line.

Another data set concerns MKN45 stomach cell line. The experiment in a line: Cell growth inhibition assay (cytotoxicity), MKN45. In kind it is cell-based. The following applies: Homo sapiens, MKN-45, Table 2, MTS, 72 h. The procedure: as §4
A further data set deals with Human KB cancer cells. Put plainly: Tumor regression model, KB xenograft. The following applies: Compound 1 and cisplatin together vs cisplatin alone. The data set is classed as in vivo, Male CD 1 nude mice. The procedure:
(§5) Tumor Regression Models: The procedures of cancer cell implantation were similar to those previously reported in Chen et al., Cancer Res., (1998) 58:2777-2783, with modifications. Male CD 1 nude mice (5~6 weeks old) were purchased from Charles River Laboratories (Wilmington, MA, USA). Human MKN45 and KB cancer cells were maintained in RPMI 1640 plus 10% fetal bovine serum. Each animal was subcutaneously implanted with 5×10^5 MKN45 or 1×10^6 KB cells in 0.1 ml at one flank. Tumor growth was examined three times a week after implantation. The volume of tumor was measured with a caliper and calculated as 1/2×length×width^2 in mm^3. Test compounds were dissolved completely in a vehicle mixture of dimethyl sulfoxide:cremophor:saline (1:4:15). When the size of a growing tumor reached approximately 100 mm^3, the mice were treated with test compounds intravenously from tail veins at a concentration of 50 mg/kg daily for two weeks. Mice in a control group were treated with the solvent vehicle only. Tumor sizes and body weights were measured twice a week and after the mice were sacrificed.

Data set [1] concerns MESSA/DX5 uterine cell line. The experiment in a line: Cell growth inhibition assay (cytotoxicity), MESSA/DX5. In kind it is cell-based. The following applies: Homo sapiens, MES-SA/Dx5, Table 2, MTS, 72 h. The procedure: as §4
Another data set concerns A549 lung cell line. Put plainly: Cell growth inhibition assay (cytotoxicity), A549. In kind it is cell-based. The following applies: Homo sapiens, Table 2, MTS, 72 h. The procedure: as §4
A further data set concerns SW480 colon cell line. Put plainly: Cell growth inhibition assay (cytotoxicity), SW480. In kind it is cell-based. The following applies: Homo sapiens, Table 2, MTS, 72 h. The procedure: as §4
The test system of the next data set is KB100R. Put plainly: Cell growth inhibition assay on line KB100R. The following applies: Homo sapiens, 72 h, read-out: Cytotoxicity KB100R. The procedure: as §1, §2, §3
Another data set concerns HONE-1. The experiment in a line: Cell growth inhibition assay (cytotoxicity), HONE-1 cell line. The following applies: Homo sapiens, HONE1, 72 h.
The subject of another data set is NUGC. The experiment in a line: Cell growth inhibition assay (cytotoxicity), NUGC. The data set is classed as cell-based. The following applies: Homo sapiens, Table 2, Stomach, MTS, 72 h. The procedure:
as §4

For the next data set, the system named is KBtaxol-5. The experiment in a line: Cell growth inhibition assay on drug-resistant line KBtaxol-5. The following applies: Homo sapiens, 72 h, read-out: Cytotoxicity KBtaxol -5. The procedure:
as §1, §2, §3

The subject of data set [2] is MCF-7 breast carcinoma cells. The experiment in a line: Cell growth inhibition assay (cytotoxicity), MCF7. The data set is classed as cell-based. The following applies: Homo sapiens, Table 2, MTS, 72 h. The procedure:
In one assay, an indole compound is tested for its cytotoxicity on MCF-7 cells (a breast carcinoma cell line). More specifically, cells are incubated with a test compound for 24 hr. The cytotoxic effect can be determined using the MTS (3-(4,5-dimethylthiazol-2-yl)-5-(3-carboxymethoxyphenyl)-2-(4-sulfophenyl)-2H-tetrazolium, inner salt) assay method described in Goodwin et al. (1995, J. Immunol. Methods. 179: 95-103). Cytotoxicity of the test compound is expressed in terms of IC50 values (i.e., the concentration of the test compound which achieves a half-maximal inhibition of cell growth).

A further data set deals with KB7DR. Put plainly: Cell growth inhibition assay on line KB7DR. The following applies: Homo sapiens, 72 h, read-out: Cytotoxicity KB7DR. The procedure:
as §1, §2, §3

For another data set, the system named is Human MKN45 cancer cells. The experiment in a line: Tumor regression model, MKN45 xenograft. In kind it is in vivo, Male CD 1 nude mice. The procedure:
as §5

Read-outs that look alike come from different tables or passages of the source.

Turning to `CC[C@@]1(O)C(=O)OCc2c1cc1n(c2=O)Cc2cc3ccccc3nc2-1` [CPT, camptothecin], the IC50 worked out at 133 nM in the data set with KB7D; 400 nM in the data set with KB-Vin10 (Homo sapiens, KB-VIN10, 72 h); 26 nM with KB; 1290 nM with KB100.

Turning to `N.N.[Cl][Pt][Cl]` [Cisplatin, reference compound], the IC50 was determined as 15000 nM with HONECis-6 (Table 1, Cis Res., MTS) and 5 nM in the data set with KB-Vin10 (Table 1, Vin. Res, MTS, 72 h).

`COc1ccc2c(C(=O)c3cc(OC)c(OC)c(OC)c3)c[nH]c2c1` [Compound 1, (6-methoxy-1H-indol-3-yl)-(3,4,5-trimethoxy-phenyl)-methanone]: the IC50 was found to be 7 nM with MESSA uterine cell line; 4 nM in the data set on MKN45 stomach cell line; 4.5 nM with HONECis-6 (Homo sapiens); 3.8 nM in data set [1]; 4 nM in the data set on KB7D; 7 nM in the data set with KB-Vin10 (Homo sapiens, KB-VIN10, 72 h). Also, the IC50 with A549 lung cell line is 17 nM; in the data set with SW480 colon cell line, 3 nM; in the data set on KB100R, 12 nM; with HONE-1 (read-out: Cytotoxicity HONE -1) it was 4 nM; in the data set on HONE-1 (read-out: Cytotoxicity HONE-1) it was 4 nM; in the data set on NUGC, 3 nM. For the same molecule, the IC50 worked out at 6 nM in the data set with KB; 8 nM in the data set on KB100; 7 nM with KBtaxol-5; 7.6 nM in data set [2]; 6 nM in the data set with KB7DR. The “activity in inhibiting tumor growth, administered together with cisplatin” value is reported as “higher activity in inhibiting tumor growth than cisplatin administered alone” in the data set with Human KB cancer cells; “higher activity in inhibiting tumor growth than cisplatin administered alone” with Human MKN45 cancer cells (Compound 1 and cisplatin together vs cisplatin alone). Further, the “activity in inhibiting tumor growth” value with Human MKN45 cancer cells (intravenously 50 mg/kg daily for two weeks, compared with cisplatin) was “higher activity in inhibiting tumor growth than cisplatin”.

Turning to `COc1ccc2c(C(=O)c3cc(OC)c(OC)c(OC)c3)cn(C(=O)OC(C)(C)C)c2c1` [Compound 6, 6-methoxy-3-(3,4,5-trimethoxy-benzoyl)-indole-1-carboxylic acid tert-butyl ester], the IC50 in the data set on HONECis-6 (Homo sapiens) came out at 19 nM; with KB7D it was 8 nM; with KB-Vin10 (Homo sapiens, KB-VIN10, 72 h), 9.6 nM; with KB100R it was 18 nM; in the data set with HONE-1 (read-out: Cytotoxicity HONE -1), 19 nM; in the data set with KB it was 13 nM. The IC50 in the data set with KB100 was 18 nM; in the data set with KBtaxol-5, 37 nM; with KB7DR it was 15 nM.

On to `CC(=O)O[C@H]1C(=O)[C@@]2(C)[C@H]([C@H](OC(=O)c3ccccc3)[C@]3(O)C[C@H](OC(=O)[C@H](O)[C@@H](NC(=O)c4ccccc4)c4ccccc4)C(C)=C1C3(C)C)[C@]1(OC(C)=O)CO[C@@H]1C[C@@H]2O` [Taxol, paclitaxel, reference compound], for which the IC50 in the data set on KB was 10 nM; with KBtaxol-5 it was 80 nM.

`COc1cc([C@@H]2c3cc4c(cc3[C@@H](O[C@@H]3O[C@@H]5CO[C@@H](C)O[C@H]5[C@H](O)[C@H]3O)[C@H]3COC(=O)[C@H]23)OCO4)cc(OC)c1O` [VP-16]: the IC50 in the data set on KB7D amounted to 44000 nM; with KB, 500 nM; in the data set on KB7DR, 3500 nM.

Turning to `CC[C@]1(O)C[C@H]2CN(CCc3c([nH]c4ccccc34)[C@@](C(=O)OC)(c3cc4c(cc3OC)N(C=O)[C@H]3[C@@](O)(C(=O)OC)[C@H](OC(C)=O)[C@]5(CC)C=CCN6CC[C@]43[C@@H]65)C2)C1` [Vincristine, reference compound], the IC50 in the data set on HONECis-6 (Homo sapiens) was found to be 0.6 nM; in the data set with KB7D, 1920 nM; with KB-Vin10 (Homo sapiens, KB-VIN10, 72 h) it was 43 nM; in the data set on HONE-1 (read-out: Cytotoxicity HONE -1), 0.5 nM; with KB, 1 nM; in the data set with KB7DR, 337 nM.
